From US20230150977A1, “PYRIDAZINONE COMPOUNDS FOR THE TREATMENT OF NEUROMUSCULAR DISEASES” (Edgewise Therapeutics, Inc., priority 2020, published 2023)

Molecular target: skeletal myofibrils (Rabbit Psoas) myosin ATPase
Assay: Skeletal Myofibril ATPase Assay
Format: biochemical
Settings: PK/LDH coupled, absorbance at 340 nm
Method: Overview: Myosin ATPase activity was assessed by using a coupled reaction system, in which ADP generated by the myosin ATPase function was coupled to the disappearance of NADH through the pyruvate kinase/lactate dehydrogenase (PK-LDH) system. Myosin ATPase activity produces ADP, which was used as a substrate for PK to produce pyruvate and regenerate ATP. The pyruvate was then used as a substrate by LDH to oxidize NADH to NAD+. The rate of the reaction was monitored through the time-dependent disappearance of NADH using absorbance at 340 nm. Inhibition of ATPase activity by the assayed compounds was indicated by a reduced rate of NADH loss, relative to vehicle-treated controls, over the experimental time window. To assess the selectivity of the assayed compounds for skeletal myofibrils, the compounds were counter-screened in cardiac myofibrils.
Materials: The following stock solutions and reagents were used in the Skeletal Myofibril ATPase Assay:
Stock Solutions of pCa buffer. Combine PIPES, CaCl2, and EGTA solutions with 70 mL of water. Adjust pH to 7.0 and bring final volume to 100 mL.
Buffer A & Buffer B. Buffers were stored on ice until use.
Skeletal Myofibril ATPase Assay Procedure: BSA, ATP, NADH, PEP, and DTT solutions were thawed at room temperature, then transferred to ice. Pellet-frozen myofibrils (approximately twice the required volume) were transferred into a sufficiently large tube and capped. Myofibrils were thawed by rolling in a water bath for approximately 15 min at room temperature and cooled on ice. Buffers A and B were prepared by adjusting volumes as necessary for required number of wells and stored on ice. 0.5 μL of the compounds to be assayed were added into wells of a 384-well plate. Buffers A and B were mixed by inversion immediately prior to use, then 25 μL of each was dispensed using a Multidrop dispenser (Buffer A first, then Buffer B). The absorbance within the wells was measured at 340 nm, using a kinetic protocol in which the wells are read every 1.5-2 min for 1 h. The reaction rate was qualitatively assessed by subtracting the minimum absorbance value from the maximum value for each well, using either the SoftMax Pro plate reader software or a spreadsheet program such as Excel. Using GraphPad Prism 8.0, the data was normalized, with 100% activity defined as the absorbance change in the 1% DMSO vehicle wells and 0% assigned to no change in absorbance over the course of the experiment. The normalized data were fit to a variable-slope four-parameter logistic model, constraining the bottom to be 0 or greater. Compounds of Table 1 to 3 were tested and results of the assay appear in Table 4 herein. A=IC50 is less than or equal to 10 μM; B=IC50 is greater than 10 μM and less than 100 μM; C=IC50 is greater than 100 μM.

Row | SMILES | IC50 [µM]
1 | O=c1ccc(-c2cnc(OCC(F)(F)F)nc2)nn1CCC1CCC1 [Compound 1, 2-(2-cyclobutylethyl)-6-(2-(2,2,2-trifluoroethoxy)pyrimidin-5-yl)pyridazin-3(2H)-one] | ≤ 10
2 | O=c1ccc(-c2cnc(OCC(F)(F)F)nc2)nn1CCCc1ccccc1 [Compound 2, 2-(3-phenylpropyl)-6-(2-(2,2,2-trifluoroethoxy)pyrimidin-5-yl)pyridazin-3(2H)-one] | ≤ 10
3 | CC1CC1CCn1nc(-c2cnc(OCC(F)(F)F)nc2)ccc1=O (stereo not shown) [Compound 3, 2-(2-(2-methylcyclopropyl)ethyl)-6-(2-(2,2,2-trifluoroethoxy)pyrimidin-5-yl)pyridazin-3(2H)-one] | ≤ 10
4 | O=c1ccc(-c2cnc(OCC(F)(F)F)nc2)nn1CCc1ccccc1 [Compound 4, 2-phenethyl-6-(2-(2,2,2-trifluoroethoxy)pyrimidin-5-yl)pyridazin-3(2H)-one] | ≤ 10
5 | O=c1ccc(-c2cnc(OCC(F)(F)F)nc2)nn1CCC1CC1 [Compound 5, 2-(2-cyclopropylethyl)-6-(2-(2,2,2-trifluoroethoxy)pyrimidin-5-yl)pyridazin-3(2H)-one] | ≤ 10
6 | O=c1ccc(-c2cnc(OCC(F)(F)F)nc2)nn1CCc1ccc(Cl)cc1 [Compound 6, 2-(4-chlorophenethyl)-6-(2-(2,2,2-trifluoroethoxy)pyrimidin-5-yl)pyridazin-3(2H)-one] | ≤ 10
7 | O=c1ccc(-c2cnc(OCC(F)(F)F)nc2)nn1CCC12CC(C1)C2 [Compound 7, 2-(2-(bicyclo[1.1.1]pentan-1-yl)ethyl)-6-(2-(2,2,2-trifluoroethoxy)pyrimidin-5-yl)pyridazin-3(2H)-one] | ≤ 10
8 | CCCn1nc(-c2cnc(OCC(F)(F)F)nc2)ccc1=O [Compound 8, 2-propyl-6-(2-(2,2,2-trifluoroethoxy)pyrimidin-5-yl)pyridazin-3(2H)-one] | ≤ 10
9 | O=c1ccc(-c2cnc(OCC(F)(F)F)nc2)nn1CCc1cncc(F)c1 [Compound 9, 2-(2-(5-fluoropyridin-3-yl)ethyl)-6-(2-(2,2,2-trifluoroethoxy)pyrimidin-5-yl)pyridazin-3(2H)-one] | ≤ 10
10 | O=c1ccc(-c2cnc(OCC(F)(F)F)nc2)nn1CCc1ccccn1 [Compound 10, 2-(2-(pyridin-2-yl)ethyl)-6-(2-(2,2,2-trifluoroethoxy)pyrimidin-5-yl)pyridazin-3(2H)-one] | ≤ 10
11 | O=c1ccc(-c2ccc(OC(F)F)cc2)nn1CCc1ccc(Cl)cc1 [Compound 11, 2-(4-chlorophenethyl)-6-(4-(difluoromethoxy)phenyl)pyridazin-3(2H)-one] | ≤ 10
12 | O=c1ccc(-c2ccc(OC(F)F)nc2)nn1CCc1ccc(Cl)cc1 [Compound 12, 2-(4-chlorophenethyl)-6-(6-(difluoromethoxy)pyridin-3-yl)pyridazin-3(2H)-one] | ≤ 10
13 | CC(Cn1nc(-c2cnc(OCC(F)(F)F)nc2)ccc1=O)c1ccccc1 (stereo not shown) [Compound 13, 2-(2-phenylpropyl)-6-(2-(2,2,2-trifluoroethoxy)pyrimidin-5-yl)pyridazin-3(2H)-one] | ≤ 10
14 | COc1ccc(-c2ccc(=O)n(CC3CCCCC3)n2)cc1 [Compound 14, 2-(cyclohexylmethyl)-6-(4-methoxyphenyl)pyridazin-3(2H)-one] | ≤ 10
15 | O=c1ccc(-c2ccc(Cl)cc2)nn1CCc1ccccc1 [Compound 15, 6-(4-chlorophenyl)-2-phenethylpyridazin-3(2H)-one] | ≤ 10
16 | COc1ccc(-c2ccc(=O)n(CCc3ccccc3)n2)cc1 [Compound 16, 6-(4-methoxyphenyl)-2-phenethylpyridazin-3(2H)-one] | ≤ 10
17 | CC(C)(C)CCn1nc(-c2cnc(OCC(F)(F)F)nc2)ccc1=O [Compound 17, 2-(3,3-dimethylbutyl)-6-(2-(2,2,2-trifluoroethoxy)pyrimidin-5-yl)pyridazin-3(2H)-one] | 10 to 100
18 | O=c1ccc(-c2ccccc2)nn1CC(O)COCc1ccccc1Cl (stereo not shown) [Compound 18, 2-(3-((2-chlorobenzyl)oxy)-2-hydroxypropyl)-6-phenylpyridazin-3(2H)-one] | 10 to 100
19 | O=c1ccc(-c2cnc(OCC(F)(F)F)nc2)nn1CCc1ccncc1 [Compound 19, 2-[2-(pyridin-4-yl)ethyl]-6-[2-(2,2,2-trifluoroethoxy)pyrimidin-5-yl]pyridazin-3-one] | ≤ 10
20 | CSc1ccc(-c2ccc(=O)n(C/C=C/c3ccccc3)n2)cc1 [Compound 20, 2-cinnamyl-6-(4-(methylthio)phenyl)pyridazin-3(2H)-one] | ≤ 10
21 | O=c1ccc(-c2ccc(Cl)cc2)nn1CC1CCCCC1 [Compound 21, 6-(4-chlorophenyl)-2-(cyclohexylmethyl)pyridazin-3(2H)-one] | ≤ 10
22 | O=c1ccc(-c2ccc3c(c2)OCCCO3)nn1CCOc1ccc(F)cc1 [Compound 22, 6-(3,4-dihydro-2H-benzo[b][1,4]dioxepin-7-yl)-2-(2-(4-fluorophenoxy)ethyl)pyridazin-3(2H)-one] | 10 to 100

Further lines, results first:

Row | IC50 [µM] | SMILES
23 | 10 to 100 | N#CCn1nc(-c2ccc(Br)cc2)ccc1=O [Compound 23, 2-(3-(4-bromophenyl)-6-oxopyridazin-1(6H)-yl)acetonitrile]
24 | > 100 | CCOc1ccc(-c2ccc(=O)n(CCNC(=O)CC3CCCC3)n2)cc1 [Compound 24, 2-cyclopentyl-N-(2-(3-(4-ethoxyphenyl)-6-oxopyridazin-1(6H)-yl)ethyl)acetamide]
25 | 10 to 100 | N#CCn1nc(-c2cnc(OCC(F)(F)F)nc2)ccc1=O [Compound 25, 2-(6-oxo-3-(2-(2,2,2-trifluoroethoxy)pyrimidin-5-yl)pyridazin-1(6H)-yl)acetonitrile]
26 | 10 to 100 | CC(C)OCCn1nc(-c2ccc3c(c2)OCCCO3)ccc1=O [Compound 26, 6-(3,4-dihydro-2H-benzo[b][1,4]dioxepin-7-yl)-2-(2-isopropoxyethyl)pyridazin-3(2H)-one]
27 | 10 to 100 | C=C(C)Cn1nc(-c2ccc(Br)cc2)ccc1=O [Compound 27, 6-(4-bromophenyl)-2-(2-methylallyl)pyridazin-3(2H)-one]
28 | > 100 | CCOc1ccc(-c2ccc(=O)n(CCNC(=O)C3CCCC3)n2)cc1 [Compound 28, N-(2-(3-(4-ethoxyphenyl)-6-oxopyridazin-1(6H)-yl)ethyl)cyclopentanecarboxamide]
29 | > 100 | CC(=O)NCCn1nc(-c2ccc(OC(F)F)cc2)ccc1=O [Compound 29, N-(2-(3-(4-(difluoromethoxy)phenyl)-6-oxopyridazin-1(6H)-yl)ethyl)acetamide]
30 | > 100 | CS(=O)(=O)NCCn1nc(-c2ccc(OC(F)F)nc2)ccc1=O [Compound 30, N-(2-(3-(6-(difluoromethoxy)pyridin-3-yl)-6-oxopyridazin-1(6H)-yl)ethyl)methanesulfonamide]
31 | > 100 | CC1(Cn2nc(-c3ccc(OC(F)F)nc3)ccc2=O)COC1 [Compound 31, 6-(6-(difluoromethoxy)pyridin-3-yl)-2-((3-methyloxetan-3-yl)methyl)pyridazin-3(2H)-one]
32 | > 100 | CC1(Cn2nc(-c3cnc(OCC(F)(F)F)nc3)ccc2=O)COC1 [Compound 32, 2-((3-methyloxetan-3-yl)methyl)-6-(2-(2,2,2-trifluoroethoxy)pyrimidin-5-yl)pyridazin-3(2H)-one]
33 | > 100 | CCNC(Cn1nc(-c2ccc(OC(F)F)nc2)ccc1=O)C(F)(F)F (stereo not shown) [Compound 33, 6-(6-(difluoromethoxy)pyridin-3-yl)-2-(2-(ethylamino)-3,3,3-trifluoropropyl)pyridazin-3(2H)-one]
34 | > 100 | O=c1ccc(-c2ccc(OC(F)F)nc2)nn1CCO [Compound 34, 6-(6-(difluoromethoxy)pyridin-3-yl)-2-(2-hydroxyethyl)pyridazin-3(2H)-one]
35 | > 100 | O=c1ccc(-c2ccc(Cl)cc2)nn1CC1CCOCC1 [Compound 35, 6-(4-chlorophenyl)-2-((tetrahydro-2H-pyran-4-yl)methyl)pyridazin-3(2H)-one]
36 | > 100 | O=C(CCn1nc(-c2ccccc2)ccc1=O)NC1CCCCC1 [Compound 36, N-cyclohexyl-3-(6-oxo-3-phenylpyridazin-1(6H)-yl)propanamide]
37 | > 100 | COc1ccc(-c2ccc(=O)n(CCNC(=O)Nc3cccs3)n2)cc1 [Compound 37, 1-(2-(3-(4-methoxyphenyl)-6-oxopyridazin-1(6H)-yl)ethyl)-3-(thiophen-2-yl)urea]
